Laboratory results reported in a melting point compilation (Tetko et al.; mined from patent text by program, amines drawn as free bases though some values may be those of a salt).

Compared with `CCn1ncc2c1ncc1c(OCCN(C)C)nc3ncnn3c12`, `COCCOCCNc1ncnc2c1cnn2-c1cc(C)cc(C)c1` is lower in melting point: 149 to 150 °C for the first, 90.4 °C for the second.

Compared with `O=C1Nc2ccc([N+](=O)[O-])cc2C12OCCCO2`, `CC1(C)Nc2nc(Cl)ccc2NC1=O` is higher in melting point: 155 to 168 °C for the first, 229 °C for the second.

First: O=C(c1ccccc1)c1ccc2cc[nH]c2n1
Second: NC(=O)C1N=C(c2ccccc2)c2cc(Cl)ccc2NC1=O (configuration not stated)
The melting point of the first is lower: 174 °C for the first, 255 to 256 °C for the second.

First: COC(=O)Cc1cc(NC(=O)OC(C)(C)C)c(N)cc1C#Cc1ccccc1
Second: CCCc1c(C(=O)C(C)C)c2ccc(C(=O)O)cc2n1Cc1ccccc1I
The melting point of the first is lower: 130 °C for the first, 210 °C for the second.

Compared with `CC(=O)c1cc2c(c(CCl)c1O)CCCC2`, `Cc1cc2c(c3c1C(c1ccc(C(C)C)cc1)CO3)CCC2` (configuration not stated) is lower in melting point: 88 to 90 °C for the first, 77 to 78 °C for the second.

First: O=C(CCC(F)(F)F)c1c(O)c2cccnc2n(-c2ccccc2)c1=O
Second: O=c1c(Cc2ccccc2)coc2cc(OS(=O)(=O)C(F)(F)F)ccc12
The melting point of the first is higher: 217 to 220 °C for the first, 56 to 58 °C for the second.

First: CN1CC(CCN2CC(=O)NC2=O)CC2c3cccc4[nH]cc(c34)CC21 (configuration not stated)
Second: CCc1cn(C2CC(O)C(CCC(O)Cc3c(Cl)cccc3Cl)O2)c(=O)[nH]c1=O (mixture of isomers)
The melting point of the first is higher: 242 to 244 °C for the first, 185 to 186 °C for the second.

First: CCCOc1cccc(C(=O)O)c1O
Second: CCOC(=O)c1ncn2c1CNC(=O)c1c(Cl)cccc1-2
The melting point of the first is lower: 114 to 118 °C for the first, 278 to 279 °C for the second.

First: Nc1ccc(Oc2ccc(C(=O)c3ccc(C#Cc4ccccc4)cc3)cc2)cc1
Second: Cc1oc(-c2ccco2)nc1COc1ccc(Cn2cc(CCC(=O)O)c(-c3ccccc3)c2)cc1
The melting point of the first is higher: 151 to 153 °C for the first, 86 to 87 °C for the second.

First: CN(C)Cn1cnc2c1c(=O)n(C)c(=O)n2C
Second: Cn1c(C#N)c(C#N)n(-c2cc(O)c(Cl)cc2F)c1=O
The melting point of the first is lower: 121 to 123 °C for the first, 210 to 212 °C for the second.

First: C=CCn1c2c(c3ccccc31)C(=O)C(Cn1ccnc1C)CC2 (configuration not stated)
Second: CCOC(=O)N1CCC(n2nc(Cc3ccc(F)cc3)c3ccccc3c2=O)CC1
The melting point of the first is lower: 132 °C for the first, 151 to 152 °C for the second.

First: Cc1nc(N)c2nc(C)n(NC3CCCCC3)c2c1C
Second: CC(=O)c1c(C)nc(C)nc1NCc1ccc(Br)cc1
The melting point of the first is higher: 242 to 244 °C for the first, 78 to 80 °C for the second.

Compared with `CCCCCCCCCCOc1cc(OCCCCCCCCCC)cc(N2CC(=O)OC(=O)C2)c1`, `COc1cc2c(Oc3ccc4[nH]c(C)cc4c3)ncnc2cc1OCC1CCN(C)C(=O)C1` (configuration not stated) is higher in melting point: 62 °C for the first, 250 to 251 °C for the second.

First: O=C(NCC12CCCN(CCC1)C2)c1c[nH]c2ccccc12
Second: Cc1nc2n(c(=O)c1CCO)CCCN2Cc1ccccc1
The melting point of the first is lower: 139 to 142 °C for the first, 150 °C for the second.

Compared with `O=C(O)c1c(Cl)cc(Cl)nc1Cl`, `Cc1cc(O)ccc1-c1nc2cc(O)cc(Br)c2o1` is lower in melting point: 138 to 141 °C for the first, 120 to 135 °C for the second.

First: Cc1cc(NCc2ccccc2)c(C)c2c1OCC2c1ccc(C(C)C)cc1 (configuration not stated)
Second: Cc1cccc(-c2[nH]c(C(C)C)nc2-c2cccc(-c3ccc(C(F)(F)F)cc3)c2)n1
The melting point of the first is lower: 82 to 83 °C for the first, 91 to 93 °C for the second.

Compared with `CCCCCC1CCC(c2ccc(CC(=O)OC)cc2)CC1` (configuration not stated), `CC(=O)Nc1ccc(-n2nc(C(=O)NC(C)(C)C)c3c2C2CCC3C2)cc1` (configuration not stated) is higher in melting point: 46 to 47 °C for the first, 122 to 124 °C for the second.

First: O=CNc1ccc(-c2ccncc2)cc1
Second: NCc1cccc(-c2ccc(Br)cc2)n1
The melting point of the first is higher: 188 to 190 °C for the first, 71 to 75 °C for the second.

Compared with `N#CC(=CNC1CC1)C(=O)c1cc(F)c(F)c(F)c1F`, `CC(C)c1nc(C(F)(F)F)ccc1C(=O)c1c(S(C)(=O)=O)noc1C1CC1` is higher in melting point: 88 to 89 °C for the first, 105 to 106 °C for the second.

First: CC(=O)N(C)Nc1nnc(-c2ccccc2C)s1
Second: CC(C)C(=O)N(O)Cc1ccc2c(c1)Cc1ccccc1-2
The melting point of the first is lower: 106 to 108 °C for the first, 163 to 166 °C for the second.

First: CN(C)c1ccccc1CC(=O)N1C[C@@H]2SCCC(c3ccccc3)(c3ccccc3)[C@@H]2C1 (racemic)
Second: O=C(O)C(=O)CC(=O)c1cn(Cc2ccccc2)c2ccccc2c1=O
The melting point of the first is higher: 163 °C for the first, 141 to 142 °C for the second.

First: CCOC(=O)c1cn(CCc2ccccc2)c2oc(CN3CCOCC3)cc2c1=O
Second: Cn1cc(CN2CCN(CCOc3ccc(C=C4SC(=O)NC4=O)cc3)CC2)c2ccccc21
The melting point of the first is lower: 150 to 153 °C for the first, 183 to 188 °C for the second.

First: COC(=O)c1cc(CC#N)cc(CC#N)c1
Second: Cc1cc(CNC(=O)c2ccnc(N3CCN(Cc4ccc(F)cc4)C3=O)c2)nn1C
The melting point of the first is lower: 90 to 92 °C for the first, 150 to 152 °C for the second.

First: Cc1nc(S(=O)(=O)n2ccc(/C=C/C(=O)NO)c2)cn1C
Second: Cc1nc(-n2cnn(Cc3ccc(F)cc3)c2=O)sc1C(=O)NCc1ncco1
The melting point of the first is higher: 190 to 194 °C for the first, 152 to 153 °C for the second.

Compared with `COc1ccc2[nH]ncc2c1Br`, `CS(=O)(=O)N1CCOc2ccc(C3=NNC(=O)CC3)cc21` is higher in melting point: 178 to 180 °C for the first, 245 °C for the second.

Compared with `NS(=O)(=O)c1ccc(-c2cnn(-c3ccc(F)cc3)c(=O)c2-c2ccc(F)cc2)cc1F`, `N#Cc1ccc(-c2cncc(OC3SCC(O)C(O)C3O)c2)cc1Cl` (configuration not stated) is lower in melting point: 222 to 224 °C for the first, 202 to 204 °C for the second.
